Reference: paper PMC8318231, “Rate-of-Kill (RoK) assays to triage large compound sets for Chagas disease drug discovery: Application to GSK Chagas Box” (PLoS Neglected Tropical Diseases, 2021)

Tests used:
[1] = system: T. cruzi Tulahuen trypomastigotes; experiment: T. cruzi trypomastigote assay (Cell Titer-Glo viability, ATP luminescence); assay type: cell-based, Trypanosoma cruzi; conditions: for Trypomastigotes pIC50 48 hours: 48 hours incubation; for Trypomastigotes pIC50 48 hours / Trypomastigotes pIC50 72 hours: pIC50 = -log10 IC50 in molar units; for Trypomastigotes pIC50 72 hours: 72 hours incubation; for 72 pIC50 (trypomastigotes, raw data of Fig 1D): 72 hours, plotted values, censored values given without sign; for 48 pIC50 / 72 pIC50: trypomastigote assay; for 48 pIC50: 48 h; for 72 pIC50: 72 h
Summary of the method: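 Tulahuen trypomastigotes from infected LLC-MK2 culture supernatants (days 5–8) plated at 5 × 10^4 per well in DMEM/2% FBS with compound at 5 μM single-shot final or in dose response. Viability by CellTiter-Glo ATP luminescence after 10 min at room temperature, normalised to no-cell (100%) and DMSO (0%) controls.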

[2] = system: T. cruzi intracellular amastigotes in H9c2 cells; experiment: Rate-of-Kill (RoK) high-content imaging assay, amastigotes per cell (AM/CELL) and curve descriptors; assay type: cell-based, Trypanosoma cruzi; parameters: key to ME_24h / ME_48h / ME_72h: % reduction in parasite burden (cidal response); t50pct_MCC50 / t50pct_Cmax: unit not given here; conditions: for ME_24h: 24h; for ME_48h: 48h; for ME_72h: 72h; for AM/CELL NORM: sheet figure 4 A; for t50%_Cmax / tlag_Cmax / t50pct_Cmax: at Cmax; for ME_24h (%): maximum effect at 24 h; for ME_24h (%) / ME_48h (%) / ME_72h (%): RoK assay; for ME_48h (%): maximum effect at 48 h; for ME_72h (%): maximum effect at 72 h; for ME 24h (maximum effect at 24 hours, intracellular amastigotes): maximum percentage of parasite burden reduction reached by any concentration
Summary of the method: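 H9c2 cardiomyocytes infected with T. cruzi trypomastigotes (MOI 8, 18 h), then compounds tested at 5 μM single shot or 11-point 1/3 dilution from 50 μM. DRAQ5-stained nuclei imaged over a time course. Amastigotes per cell normalised to infected cells at 4 h (0%) and non-infected cells (100%).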

SMILES | Trypomastigotes pIC50 48 hours [1] | Trypomastigotes pIC50 72 hours [1] | ME_24h ([2]; figure 5) | ME_48h ([2]; figure 5) | ME_72h ([2]; figure 5) | MCCE ([2]; RoK curve descriptor) | AM/CELL NORM ([2]; Time 4) | AM/CELL NORM ([2]; Time 24) | AM/CELL NORM ([2]; Time 48) | AM/CELL NORM ([2]; Time 72) | tlag_Cmax [2] | t50pct_Cmax ([2]; figure 5) | tlag_Cmax ([2]; figure 5) | t50%_MCC50 ([2]; at MCC50) | tlag_MCC50 ([2]; at MCC50) | t50pct_MCC50 ([2]; at MCC50, figure 5) | tlag_MCC50 ([2]; at MCC50, figure 5) | MCCE ([2]; figure 5) | ME_24h (%) [2] | ME_48h (%) [2] | other results
COc1ccc(C2CC(c3ccccc3Cl)=NN2C(=O)CNC(=O)C2CCC2)cc1 (stereo not shown) [TCMDC-143130] | 4.6 | 4.7 | 26.5695 | 65.3197 | 85.0018 | 1.9 µM | 21.8567 | 26.5695 | 65.3197 | 85.0018 | 4.0 h | 48 | 4 | 72.0 h | 4.0 h | 72 | 4 | 1.852 | 26.6% | 65.3% | MCC50 ([2]; RoK curve descriptor): 5.6 µM; t50%_Cmax [2]: 48.0 h; MCC50 ([2]; figure 5, in µM): 5.556; ME_72h (%) [2]: 85.0%; ME 24h (maximum effect at 24 hours, intracellular amastigotes) [2]: 26.5695%
CCC(=O)Nc1ccc(-c2nc3ccc(Cl)cc3[nH]2)cc1 [TCMDC-143135] | 5.3 | 5.4 | 52.1566 | 46.9478 | 38.7036 | 5.6 µM | -141.214 | -21.5946 | -76.5792 | -95.9437 | 4.0 h | 72 | 4 | 24.0 h | 4.0 h | 24 | 4 | 5.556 | 52.2% | 47.0% | ME_72h (%) [2]: 38.7%; ME 24h (maximum effect at 24 hours, intracellular amastigotes) [2]: 52.1566%
COc1ccc(-c2nc3ncccc3o2)cc1NC(=O)c1cccs1 [TCMDC-143137] | < 4.3 | 5.2 | 22.8714 | 76.8526 | 102.262 | 5.6 µM | -5.518 | 19.5521 | 76.8526 | 68.9196 | 4.0 h | 48 | 4 | 48.0 h | 4.0 h | 48 | 4 | 5.556 | 22.9% | 76.9% | activity in trypomastigotes assay (in words) ([1]; 48 and 72 hours): only active in trypomastigote assay at 72 hours; cidality in the RoK assay (in words) [2]: not signs of cidality at 24 hours; ME / cidal effect at 72 hours ([2]; 72 hours): 100%; MCC50 ([2]; RoK curve descriptor): 16.7 µM; t50%_Cmax [2]: 48.0 h; MCC50 ([2]; figure 5, in µM): 16.6667; ME_72h (%) [2]: 102.3%; ME 24h (maximum effect at 24 hours, intracellular amastigotes) [2]: 22.8714%
Cc1nnnn1-c1cccc(C(=O)N2CCC[C@@]3(C)c4ncncc4CCC23)c1 (stereo partly shown) [TCMDC-143148] | < 4.3 | < 4.3 | -108.08 | -0.7839 | 73.626 | 0.6 µM | 4.786 | -133.046 | -35.529 | 70.8755 | 24.0 h | 72 | 24 | 72.0 h | 24.0 h | 72 | 24 | 0.6173 | -108.1% | -0.8% | 72 pIC50 (trypomastigotes, raw data of Fig 1D) [1]: < 4.3; 48 pIC50 ([1]; figure 1A): < 4.3; 72 pIC50 ([1]; figure 1A): < 4.3; 72 pIC50 ([1]; figure 1B): < 4.3; MCC50 ([2]; RoK curve descriptor): 1.9 µM; t50%_Cmax [2]: 72.0 h; MCC50 ([2]; figure 5, in µM): 1.852; ME_72h (%) [2]: 73.6%; ME 24h (maximum effect at 24 hours, intracellular amastigotes) [2]: -108.08%
Cc1c(C#N)c([N+](=O)[O-])nn1Cc1cccc(Cl)c1Cl [TCMDC-143152] | 6.1 | 6.1 | 56.9761 | 166.798 | 160.217 | 0.6 µM | 5.197 | 56.9761 | 166.798 | 160.217 | 4.0 h | 24 | 4 | 48.0 h | 4.0 h | 48 | 4 | 0.6173 | 57.0% | 166.8% | 72 pIC50 (trypomastigotes, raw data of Fig 1D) [1]: 6.1; 48 pIC50 ([1]; figure 1A): 6.1; 72 pIC50 ([1]; figure 1A): 6.1; 72 pIC50 ([1]; figure 1B): 6.1; MCC50 ([2]; RoK curve descriptor): 1.9 µM; t50%_Cmax [2]: 24.0 h; MCC50 ([2]; figure 5, in µM): 1.852; ME_72h (%) [2]: 160.2%; ME 24h (maximum effect at 24 hours, intracellular amastigotes) [2]: 56.9761%
